Values of other authors as cited in patent US9199980B2, “Compounds” (CHIESI FARMACEUTICI S.p.A., priority 2012, dated 2015).

Columns and labels:
[1] = tested on: smoking model of COPD in mice
[2] = patients with severe disease, frequent exacerbations and mucus hypersecretion

Structure (SMILES): O=C(Nc1c(Cl)cncc1Cl)c1ccc(OC(F)F)c(OCC2CC2)c1 [roflumilast]
- reduction of the numbers of neutrophils in sputum (COPD patients; COPD patients, oral, given over 4 weeks): 36%
- improvement of FEV 1 (COPD patients; [2]): approximately 50 ml
- reduction of exacerbation (COPD patients; [2]): about 15%
- effect on lung inflammation and emphysema [1]: inhibits lung inflammation and emphysema
